In ChEMBL document CHEMBL1148038, “Inhibition of Botrytis cinerea by New Sesquiterpenoid Compounds Obtained from the Rearrangement of Isocaryophyllene” (1994):
Activity calls are given as the source filed them. The rule behind the calls is not given here.

Assays:
Botrytis cinerea [1] = assay: Antifungal activity against Botrytis cinerea at 17 ppm for 3 days by centerpoint incubation disk assay; assay type: functional; details: 72 h, read-out: IZ
Botrytis cinerea [2] = assay: Antifungal activity against Botrytis cinerea at 100 ppm for 3 days by centerpoint incubation disk assay; assay type: functional, organism-based
Botrytis cinerea [3] = assay: Antifungal activity against Botrytis cinerea at 130 ppm for 5 days by centerpoint incubation disk assay; assay type: functional; details: 120 h, read-out: IZ
Botrytis cinerea [4] = assay: Antifungal activity against Botrytis cinerea by centerpoint incubation disk assay; assay type: functional, organism-based

With `CC1(C)C[C@@]2(C)CCC[C@]3(C)CC[C@@H]1[C@]32O` the zone of inhibition at 17 ppm (Botrytis cinerea [1]) was 20 mm and the Activity (Botrytis cinerea [2]) was “Active”.

For `CC1(C)C[C@@]2(O)[C@]3(C)CCC[C@@]2(C)[C@H]1CC3` [ACETYLGINSENOL], the Activity (Botrytis cinerea [2]) was “Active” and the zone of inhibition at 130 ppm (Botrytis cinerea [3]) was 6 mm.

With `CC1=CC[C@@H]2[C@H]3[C@@H]1CC[C@@]3(C)CC2(C)C` the Activity (Botrytis cinerea [4]) was “inactive”.
